We go through 88 compounds from a melting point compilation (Tetko et al.; mined from patent text by program, amines drawn as free bases though some values may be those of a salt).

Usually melting point stands for the temperature of the solid-liquid transition.

Compound `CCNC(=O)c1ccc(-c2ccc3nnn(Cc4ccc5ncccc5c4)c3n2)cc1Cl` returned a melting point of 187 to 190 °C.

In the case of `O=c1[nH]c2cc(Cl)ccc2c(O)c1Sc1nc2ccccc2s1`, the melting point is over 270 °C.

Compound `CN(C)C1CCN(CCc2ccc(-c3cccc(N)n3)cc2)CC1` showed a melting point of 174 to 176 °C.

With `COc1cc(C(=O)N(CCCC(=O)O)c2cccc3ccccc23)cc(OC)c1OC`, the melting point lay within 143 to 145 °C.

In the case of `CCOc1nn(Cc2cccc(OCCn3ncc4ccccc4c3=O)c2)cc1CCC(=O)O`, the melting point was in the range of 146 to 147 °C.

The compound `CC(C)(Cl)C(COCc1ccc([N+](=O)[O-])o1)N=O` (stereo not drawn) came in with a melting point of 134 to 135 °C.

On to `CC(=O)OCC(=O)NCc1cccc(-c2csc(N=C(N)NC(=O)COC(C)=O)n2)n1`, for which the melting point lay within 148 to 151 °C.

On to `NC(=O)c1cc(-c2ccncc2)nnc1Cl`, for which the melting point is over 300 °C.

In the case of `Cc1ccc(-c2c(NS(=O)(=O)c3ccc(C(C)(C)C)cc3)nc(NCCOC3CCCCO3)nc2OCCO)cc1` (stereo not drawn), the melting point was in the range of 113 to 116 °C.

Turning to `COc1ccc(C2Sc3c(ccc4ccccc34)N(CCN(C)C)C(=O)C2OC(=O)c2ccc(O)c(O)c2)cc1` (stereo not drawn), the melting point lay within 146 to 148 °C.

Take `COc1ccccc1CNc1cccnc1Cl`: the melting point was in the range of 121 to 125 °C.

In the case of `CN1CCN(c2cccc3c2C[C@H](NC(=O)c2ccc(-n4cccc4)cc2)CC3)CC1`, the melting point was in the range of 245 to 247 °C.

The compound `Cc1cc(O)nc2c1CCCC2` registered a melting point of 250 to 252 °C.

The compound `COC(=O)c1ccccc1Nc1cccc(C(C)O)c1Cl` (stereo not drawn) yielded a melting point of 94 to 95 °C.

Turning to `CCOC(=O)c1c(OCC)nsc1NC(=O)N(CC)CC`, the melting point was in the range of 77 to 80 °C.

Compound `Cn1ccnc1C1Cn2cc(C(=O)NCc3ccc(Cl)cc3)c(=O)c3cc(CN4CCOCC4)cc(c32)O1` (stereo not drawn) registered a melting point of over 260 °C.

`FC(F)(F)CO[Si](c1ccccc1)(c1ccccc1)c1ccccc1` returned a melting point of 114 °C.

In turn, `CCc1nnc(C=Cc2ncc([N+](=O)[O-])n2C)s1` returned a melting point of 165 °C.

On to `O=C(Nc1ccccc1)O[C@@H]1CN=C(c2ccc(NC(=O)C(F)(F)F)cc2)O[C@H]1c1ccccc1` (racemic), for which the melting point is 210 °C.

Compound `CC(=O)C(Cc1c(CCN(C)C)[nH]c2ccccc12)(c1ccccc1)c1ccccc1` came in with a melting point of 135 to 137 °C.

Compound `NS(=O)(=O)C1(c2cnn(CC(F)=C(F)F)c(=O)c2-c2ccc(F)cc2)C=CC=CC1` (stereo not drawn) came in with a melting point of 173 to 175 °C.

In the case of `CCCc1cn2c(=O)c(C(=O)OCC)cnc2c2cc(OC)ccc12`, the melting point lay within 187 to 188 °C.

In turn, `CC1CC(=O)NN=C1c1ccc(NC(=O)c2ccccc2O)cc1` (stereo not drawn) returned a melting point of 218 to 220 °C.

With `CCc1nc2c(cnn2CC)c(NC2CCOCC2)c1CNC(=O)c1cc(C)cc(C(=O)NCc2ccc(F)c(-c3cccc(C=O)c3)c2)c1`, the melting point was in the range of 107 to 110 °C.

`O=c1oc(-c2cccc(S(=O)(=O)C(F)(F)F)c2)nc2ccccc12` gave a melting point of 96 to 102 °C.

As for `CNS(=O)(=O)Cc1ccc2[nH]ccc2c1`, the melting point fell in the range of 127 to 129 °C.

`CC(C)N(C)c1cc2c(cc1Cl)NC(=O)CC(c1cccc(-n3nncc3CO)c1)=N2` displayed a melting point of 207 °C.

For the compound `CCOC(=O)Cc1nc(-c2cc(C(C)(C)C)c(O)c(C(C)(C)C)c2)oc1C`, the melting point lay within 103 to 105 °C.

As for `COc1cc(Nc2c(C#N)cnc3cc(/C=C/C(=O)N4CCN(C)CC4)sc23)c(Cl)cc1Cl`, the melting point is 218 to 220 °C.

Compound `COC(=O)CCOc1ccc(C=O)cc1` yielded a melting point of 48 to 50 °C.

Compound `CN(C)c1cc2c(cc1C(F)(F)F)NC(=O)CC(c1cccc(-c3ccncc3)c1)=N2` returned a melting point of 202 °C.

The compound `O=C(O)c1cc(Cl)ccc1NC(=O)C(CS)Cc1ccccc1` (stereo not drawn) gave a melting point of 157 to 158 °C.

Turning to `O=C(c1ccc(Cl)c([N+](=O)[O-])c1)c1ccc(Cl)c([N+](=O)[O-])c1`, the melting point is 131 to 132 °C.

For `CCOC(=O)C1CCc2[nH]c3ccc(F)cc3c2C1` (stereo not drawn), the melting point lay within 115 to 117 °C.

`C(=C\c1nc(COc2ccc(CCn3cncn3)cc2)co1)/c1ccccc1` returned a melting point of 136 to 137 °C.

With `CCCN1C(=O)OC2(CCN(CC=C(c3ccc(F)cc3)c3ccc(F)cc3)CC2)C1(C)O` (stereo not drawn), the melting point was 128 to 129 °C.

As to `Oc1ccc2c(c1)OCC(c1ccccc1)C2c1ccc(OCCN2CCCCC2)cc1` (stereo not drawn), the melting point was in the range of 168 to 170 °C.

In turn, `C=CC[C@H]1CC(C(=O)O)=C[C@@H](OC(CC)CC)[C@@H]1NC(C)=O` had a melting point of 229 to 230 °C.

The compound `CC(=O)c1cccc(-c2nc(Nc3ccc(OC(F)(F)F)cc3)cc(N3CCOCC3)n2)c1` gave a melting point of 218 to 220 °C.

`Oc1cc(Br)cnc1F` registered a melting point of 146 °C.

As for `Nc1ccc2oc(-c3ccccc3)nc2c1`, the melting point lay within 155 to 157 °C.

Turning to `COc1ccccc1N1CCN(CCn2c(=O)c3cscc3n(C)c2=O)CC1`, the melting point was in the range of 167 to 168 °C.

Compound `CN(C)C(=O)c1cncn1C` came in with a melting point of 46 to 47 °C.

`Nc1ncc2sc(=O)n(C3OC(CO)C(O)C3O)c2n1` (stereo not drawn) showed a melting point of 220 °C.

`CCOC(=O)c1cc(C(C)C)n(C)n1` displayed a melting point of 70.5 to 71 °C.

The compound `O=S(=O)(c1ccccc1)n1c(SC(F)(F)F)nc(-c2ccc(F)cc2)c1-c1ccc(F)cc1` showed a melting point of 154 to 155 °C.

In turn, `O=C(Cl)Oc1ccc(-c2ccccc2)cc1` yielded a melting point of 36 °C.

As to `CCCCc1cc2cccnc2[nH]1`, the melting point lay within 46 to 47 °C.

Regarding `Cc1nn(-c2ccncc2)c2nc3cc(F)c(F)cc3c(Cl)c12`, the melting point lay within 226 to 228 °C.

Consider `CC(=O)c1ccc(Nc2ccncc2N)cc1`, for which the melting point was 165 to 166 °C.

Regarding `CCC(CC)n1ccn(-c2ccc(N3CCN(c4ccc(OC)cc4)CC3)cc2)c1=O`, the melting point stood at 196 °C.

Compound `CC(=O)NC(=O)OCc1nc(C(C)C)c(Sc2cc(Cl)cc(Cl)c2)n1Cc1ccncc1` had a melting point of 135 to 137 °C.

For the compound `Cc1nc(C(F)F)c(C(=O)Nc2ccccc2-c2ccc(Cl)cc2)s1`, the melting point is 144 °C.

`COC=C(C(=O)OC)N(C)c1cccc(-c2ccccc2)n1`: the melting point was in the range of 89 to 90 °C.

Regarding `COc1ccc(Cn2c(=O)c3c(Cl)cc(Cl)cc3n(Cc3ccccc3)c2=O)cc1`, the melting point is 138 to 143 °C.

Regarding `CCCC[C@H](NC(=O)[C@H](CC(C)C)NC(=O)c1ccc(C(=O)OC)cc1)C(=O)CSCc1ccco1`, the melting point lay in the range of 100 to 102 °C.

Consider `Cc1cc(NC(=O)NC(=O)c2ccccc2Cl)nc(C)c1-c1ccccc1`, for which the melting point was 176 to 189 °C.

In the case of `COc1ccc(Sc2[nH]cc(C(=O)O)c2Sc2ccc(OC)cc2)cc1`, the melting point was 159 to 162 °C.

As to `CC(=O)Nc1ccccc1OCCCO`, the melting point lay within 78 to 80 °C.

In turn, `CC(C)(C)c1cccc(S(=O)(=O)n2c(Cc3ccc(C(=O)O)cc3)cc3cc(C(F)(F)F)ccc32)c1` had a melting point of 128 °C.

`O=c1[nH]c2cc(F)c(F)cc2cc1P(=O)(O)O`: the melting point lay in the range of 245 to 252 °C.

Compound `COc1ccc(C(=O)Nc2ccc(C(C)=O)cc2)cc1C12CC3CC(CC(C3)C1)C2` displayed a melting point of 200 to 201 °C.

`COCC1CCCN(/C(C)=C(/C#N)C(N)=S)C1` (stereo not drawn) had a melting point of 151 to 152 °C.

In turn, `S=c1[nH]c(Nc2ccc(Cl)cc2)nc2ccccc12` registered a melting point of 264 to 268 °C.

In turn, `COc1ccc2cc(CCC(C)O)cc(F)c2c1` (stereo not drawn) yielded a melting point of 58 to 60 °C.

`CC(=O)NC[C@H]1CN(c2ccc(-c3noc(C(F)(F)F)n3)c(F)c2)C(=O)O1` showed a melting point of 192 to 193 °C.

`Clc1cc2oc3ccccc3c2nn1` showed a melting point of 122 °C.

On to `CCCC(=O)C1=C(O)CC(c2cc([N+](=O)[O-])ccc2F)CC1=O` (stereo not drawn), for which the melting point stood at 132 °C.

On to `Cc1nc(N)nc(N)c1-c1cc(N)ccc1Cl`, for which the melting point was 117 to 121 °C.

For the compound `CC(C)(C)c1ccc(C(=O)C(Cl)(Cl)Cl)cc1`, the melting point lay in the range of 59 to 62 °C.

Compound `CC1CC2C3CCC4=CC(=O)C=CC4(C)C3=CCC2(C)C1C(=O)CN1CCN(c2cc(NC3CCCC3)nc(NC3CCCC3)n2)CC1` (stereo not drawn) showed a melting point of 180 to 185 °C.

The compound `C=CCc1c(OCc2ccc3ccccc3n2)ccc2c1c(SC(C)(C)C)c(CC(C)(C)C(=O)O)n2Cc1ccc(Cl)cc1` yielded a melting point of 103 to 105 °C.

On to `CCOC(=O)c1ccc(-c2ncc(-c3ccc(Cl)cc3)s2)cc1`, for which the melting point lay within 167 to 168 °C.

For `CCOC(=O)c1cn(-c2nc(OC)c(F)cc2F)c2c(Cl)c(F)c(F)cc2c1=O`, the melting point fell in the range of 140 to 143 °C.

In the case of `CN=C(Cc1ccccc1)N1CC2C(=O)CCC(c3ccccc3)(c3ccccc3)C2C1` (stereo not drawn), the melting point was found to be 110 °C.

In turn, `C#CCN1CCc2cc(OC)c(O)c3c2C1Cc1cc(OC)c(OC)cc1-3` (stereo not drawn) showed a melting point of 135 to 150 °C.

For the compound `C=C(CCCl)C(=O)c1ccc(OC)c(Cl)c1Cl`, the melting point was in the range of 58 to 60 °C.

`O=C1NC(=O)C(=Cc2ccc(CCSc3ccccc3)cc2)S1`: the melting point was in the range of 159 to 161 °C.

In turn, `CCCN(CCC)CCc1ccc(O)c(NC(N)=O)c1` had a melting point of 168 to 171 °C.

The compound `CCCCCCN=C1SC(=CC(=O)O)C(=O)N1CCCCCC` displayed a melting point of 66 to 69 °C.

For `CC(C)(C)NC(=S)c1nn(-c2ccc(F)cc2F)c2c1C1CCC2C1` (stereo not drawn), the melting point lay within 148 to 150 °C.

With `FC(F)(F)CN1CCC(CNOCc2ccccc2)CC1`, the melting point lay in the range of 93.8 to 95.1 °C.

Consider `Nc1cc(-c2cccnc2)ccc1S(N)(=O)=O`, for which the melting point was in the range of 240 to 243 °C.

Regarding `CNc1cc(C(F)(F)F)cc(N(CCN(C)C)C(=O)N(C)C)n1`, the melting point was in the range of 101 to 103 °C.

Compound `Nc1ncnc2c1c(-c1cccc3[nH]ncc13)nn2Cc1oc2ccccc2c(=O)c1-c1ccccc1` showed a melting point of 248 to 252 °C.

`COc1cc(C(=O)O)ccc1Cc1csc2ccc(NC(=O)OC3CCCC3)cc12` returned a melting point of 259 to 261 °C.

Take `CSC1=CC2=CN(SC)NN2C(SC)=N1`: the melting point was 165 to 167 °C.

As for `Fc1ccc(-c2nc3ccccn3c2-c2ccnc(-c3ccc(CN4CCOCC4)cc3)c2)cc1Cl`, the melting point is 189 °C.
